According to BindingDB's records for doi:10.1016/j.ejmech.2018.11.015 (Fudan University, 2019):

Test: Inhibition of PB2 in Influenza A virus (A/Weiss/1943(H1N1)) infected in MDCK cells assessed as reduction in virus induced cell death after 5 days by CCK-8 assay

| SMILES | EC50 [nM] |
| --- | --- |
| O=C(O)[C@H]1C2CCC(CC2)[C@@H]1Nc1nc(-c2c[nH]c3ncc(F)cc23)ncc1F | 0.6 |
| O=C(O)[C@H]1C2CCC(CC2)[C@@H]1N1CCOc2cnc(-c3c[nH]c4ncc(F)cc34)nc21 | 24 |
| Cn1cc(F)c2c(N[C@H]3C4CCC(CC4)[C@@H]3C(=O)O)nc(-c3c[nH]c4ncc(F)cc34)nc21 | 9.6 |
| O=C(O)[C@H]1C2CCC(CC2)[C@@H]1Nc1nc(-c2c[nH]c3ncc(F)cc23)nc2c1CCS2 | 2.8 |
| N#Cc1cn([C@H]2C3CCC(CC3)[C@@H]2C(=O)O)c2nc(-c3c[nH]c4ncc(F)cc34)ncc12 | 70 |
| N#Cc1csc2c(N[C@H]3C4CCC(CC4)[C@@H]3C(=O)O)nc(-c3c[nH]c4ncc(F)cc34)nc12 | 4 |
| O=C(O)[C@H]1C2CCC(CC2)[C@@H]1Nc1nc(-c2c[nH]c3ncc(F)cc23)nc2c1S(=O)(=O)CC2 | 110 |
| O=C(O)[C@H]1C2CCC(CC2)[C@@H]1Nc1nc(-c2c[nH]c3ncc(F)cc23)nc2c1CS(=O)(=O)C2 | 2000 |
| O=C(O)[C@H]1C2CCC(CC2)[C@@H]1Nc1nc(-c2n[nH]c3ncc(F)cc23)nc2ccsc12 | 0.5 |
| O=C(O)[C@H]1C2CCC(CC2)[C@@H]1Nc1nc(-c2n[nH]c3ncc(F)cc23)nc2sccc12 | 0.06 |
| O=C(O)[C@H]1C2CCC(CC2)[C@@H]1Nc1nc(-c2n[nH]c3ncc(F)cc23)nc2c1SCC2 | 0.2 |
| O=C(O)[C@H]1C2CCC(CC2)[C@@H]1Nc1nc(-n2ccc3ncc(F)cc32)ncc1F | 230 |
| O=C(O)[C@H]1C2CCC(CC2)[C@@H]1Nc1nc(-c2c[nH]c3ccc(F)cc23)ncc1F | 220 |
| O=C(O)[C@H]1C2CCC(CC2)[C@@H]1n1cnc2cnc(-c3c[nH]c4ncc(F)cc34)nc21 | 190 |
| O=C(O)[C@H]1C2CCC(CC2)[C@@H]1Nc1nc(-c2c[nH]c3ncc(F)cc23)nc2cccc(F)c12 | 20 |
| O=C(O)[C@H]1C2CCC(CC2)[C@@H]1Nc1nc(-c2c[nH]c3ncc(F)cc23)nc2cccnc12 | 14 |
| Cc1cccc2nc(-c3c[nH]c4ncc(F)cc34)nc(N[C@H]3C4CCC(CC4)[C@@H]3C(=O)O)c12 | 11 |

| SMILES | EC50 [nM] |
| --- | --- |
| O=C(O)[C@H]1C2CCC(CC2)[C@@H]1Nc1nc(-c2c[nH]c3ncc(F)cc23)nc2nccnc12 | 13 |
| O=C(O)[C@H]1C2CCC(CC2)[C@@H]1Nc1nc(-c2c[nH]c3ncc(F)cc23)nc2c1CCCC2 | 12 |
| O=C(O)[C@H]1C2CCC(CC2)[C@@H]1Nc1nc(-c2c[nH]c3ncc(F)cc23)nc2c1CCC2 | 5.5 |
| O=C(O)[C@H]1C2CCC(CC2)[C@@H]1Nc1nc(-c2c[nH]c3ncc(F)cc23)nc2ccoc12 | 5.3 |
| O=C(O)[C@H]1C2CCC(CC2)[C@@H]1Nc1nc(-c2c[nH]c3ncc(F)cc23)nc2scnc12 | 3 |
| O=C(O)[C@H]1C2CCC(CC2)[C@@H]1Nc1nc(-c2c[nH]c3ncc(F)cc23)nc2[nH]ccc12 | 4.5 |
| Cc1cnc2c(N[C@H]3C4CCC(CC4)[C@@H]3C(=O)O)nc(-c3c[nH]c4ncc(F)cc34)nc2c1 | 11 |
| O=C(O)[C@H]1C2CCC(CC2)[C@@H]1Nc1nc(-c2c[nH]c3ncc(F)cc23)nc2cc(F)cnc12 | 10 |
| O=C(O)[C@H]1C2CCC(CC2)[C@@H]1Nc1nc(-c2c[nH]c3ncc(F)cc23)nc2ccsc12 | 0.5 |
| O=C(O)[C@H]1C2CCC(CC2)[C@@H]1Nc1nc(-c2c[nH]c3ncc(F)cc23)nc2sccc12 | 0.2 |
| O=C(O)[C@H]1C2CCC(CC2)[C@@H]1Nc1nc(-c2c[nH]c3ncc(F)cc23)nc2c1SCC2 | 0.4 |
| O=C(O)[C@H]1C2CCC(CC2)[C@@H]1Nc1nc(-c2c[nH]c3ncc(F)cc23)nc2cscc12 | 1.4 |
| O=C(O)[C@H]1C2CCC(CC2)[C@@H]1Nc1nc(-c2c[nH]c3ncc(F)cc23)nc2cc(C(F)F)sc12 | 10 |
| O=C(O)[C@H]1C2CCC(CC2)[C@@H]1n1ccc2cnc(-c3c[nH]c4ncc(F)cc34)nc21 | 12 |
| O=C(O)[C@H]1C2CCC(CC2)[C@@H]1Nc1nc(-c2c[nH]c3ncc(F)cc23)nc2c1CSC2 | 2.6 |
| Cc1cccc2nc(N[C@H]3C4CCC(CC4)[C@@H]3C(=O)O)nc(-c3c[nH]c4ncc(F)cc34)c12 | 450 |
